# How the values were obtained:
# [1] = system: sterol synthesis in primary rat hepatocytes; assay: Inhibition of sterol synthesis in primary rat hepatocytes ([3H]-acetate pulse, digitonide precipitation); assay type: cell-based
# Description: Primary rat hepatocytes (2.2×10^6 cells/60 mm plate) were incubated overnight with various concentrations of inhibitor. The cells are then pulsed for 1 hour with tritiated acetate, harvested by centrifugation and the lipids extracted (Bligh, E. G. and Dyer, W. J. Can. J. Biochem. Physiol. 1959, 37. 911-917). Polar lipid are separated from neutral lipids by silicic acid chromatography. The polar lipids are collected and counted for radioactive acetate incorporation, and used as control for total acetate metabolism. The neutral lipid fraction is saponified and sterols precipitated with digitonide. The digitonide precipitate is counted to measure total incorporation of radioactive acetate into sterols.
# lnhibition of sterol synthesis by PCR II-23 was determined as set forth in Example 1.
# [2] = system: LDL receptor of HepG2 cells; assay: Effect on the LDL receptor of HepG2 cells (125I-LDL binding, internalization, degradation); assay type: cell-based; details: for 125I-LDL Binding / 125I-LDL Internal / 125I-LDL Degradation: HepG2 cells; for 125I-LDL Binding: untreated 57 ± 3; for 125I-LDL Internal: untreated 374 ± 9; for 125I-LDL Degradation: untreated 701 ± 38; for LDL BINDING: ± SEM
# Description: We have compared LA-I-140 and LN-I-83 with the conventional squalene oxide cyclase inhibitors U18666A and TMD by studying their effect on the LDL receptor of HepG2 cells.
# The assay is essentially as described by Goldstein, Basu and Brown (Methods in Enzymology, 98: 241-260, 1983). Briefly, confluent cultures of HepG2 cells are incubated for 24 hours in cholesterol-free medium to induce LDL receptors. Test compounds are added to the medium at appropriate concenrations during this incubation. At the end of 24 hours [^125 I]labeled LDL (200-400 cpm/ng) is added to the medium (10-50 ug LDL protein/ml) and the cells are incubated at 37° C. for 3-6 hours.
# (a) Degradation of ^125 I-LDL: The culture medium is removed from the monolayer of cells and undegraded LDL is precipitated with 10% (w/v) trichloroacetic acid.
# The supernatant fraction is treated with 5% (w/v) silver nitrate to precipitate any free iodine. The radioactivity in the final supernatant fraction, which represents monoiodotyrosine, the proteolytic degradation product of ^125 I-LDL, is measured in a gamma counter.
# (b) Specific binding of ^125 I-LDL: The cell monolayers are washed in a cold room (4° C.) three times rapidly with ice-cold buffer B (150 mM NaCl, 50 mM TrisHCl, pH 7.4 and 2 mg/ml bovine serum albumin). Each monolayer is incubated in buffer B for 10 minutes followed by one wash with buffer C (buffer B with bovine serum albumin omitted). Receptor-boundLDL is then released form cell surface by adding buffer D (50 mM NaCl, 10 mM HEPES, pH 7.4, 4 mg/ml dextran sulfate) and incubating at 4° C for 60 minutes on a rotary shaker (60 rotations per minute). An aliquot of buffer D is counted to determine the amount of ^125 I-LDL released from cell surface.
# Internalization of ^125 I-LDL: After removal of buffer D, the cell monolayers are dissolved in 0.1 N NaOH by incubation overnight at 37° C. in a humidified incubator. The alkaline digest is briefly homogenized with the aid of a sonicator and aliquots are withdrawn for the determination of internalized radioactivity and for measurement of cell protein. All values are normalized for 1 mg of cell protein. The results are shown n Table 1 below:
# In the case of PCR-II-23 and PCR-II-8B, we have examined their binding to the LDL receptors both when administered alone and in the presence of "down" regulators of this receptor (Table 2).
# [3] = system: cyclases of higher plants; details: Duriatti et al. 1985; cited from earlier work
# [4] = system: SOC; details: Duriatti et al. 1985; cited from earlier work
# [5] = system: fatty acid synthesis; assay: Inhibition of fatty acid synthesis; details: compared with its inhibition of cholesterol synthesis
# [6] = system: cholesterol synthesis; assay: Inhibition of cholesterol synthesis
# [7] = target: T1, squalene oxide cyclase (Rattus norvegicus, UniProt P48450); assay: biochemical; assay type: biochemical; set-up: Using a rat liver microsomal squalene oxide cyclase assay; from tissue; host or cells: rat liver microsomes / homogenate; details: for IC50: 40 uM [3H]-oxidosqualene, pH 7.5, anaerobic, 1 hour, 37° C, read-out: I50 (dosage needed to suppress half the SOC activity); for effectiveness as SOC inhibitor relative to TMD: ratio of I50 values, TMD as reference
# T1 sequence (P48450 1-733): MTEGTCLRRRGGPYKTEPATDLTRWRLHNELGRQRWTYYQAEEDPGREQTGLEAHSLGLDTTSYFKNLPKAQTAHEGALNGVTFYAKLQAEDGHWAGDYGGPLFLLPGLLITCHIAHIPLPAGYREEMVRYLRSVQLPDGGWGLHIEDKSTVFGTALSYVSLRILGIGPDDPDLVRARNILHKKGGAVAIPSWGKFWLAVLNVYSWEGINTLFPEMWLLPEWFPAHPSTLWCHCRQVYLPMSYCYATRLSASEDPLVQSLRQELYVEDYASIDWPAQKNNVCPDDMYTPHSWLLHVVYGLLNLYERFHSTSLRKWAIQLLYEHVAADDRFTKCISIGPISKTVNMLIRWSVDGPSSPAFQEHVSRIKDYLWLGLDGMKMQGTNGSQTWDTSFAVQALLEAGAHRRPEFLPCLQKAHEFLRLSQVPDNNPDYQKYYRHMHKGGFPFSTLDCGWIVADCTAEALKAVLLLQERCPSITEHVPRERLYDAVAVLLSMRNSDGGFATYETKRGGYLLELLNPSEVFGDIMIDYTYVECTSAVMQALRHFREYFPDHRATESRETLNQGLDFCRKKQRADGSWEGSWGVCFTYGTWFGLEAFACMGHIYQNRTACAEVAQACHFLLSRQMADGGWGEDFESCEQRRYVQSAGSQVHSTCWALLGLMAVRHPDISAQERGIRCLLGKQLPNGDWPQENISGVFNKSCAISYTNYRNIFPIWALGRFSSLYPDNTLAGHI
# Description: Using a rat liver microsomal squalene oxide cyclase assay, we have determined the dose at which these drugs and TMD reduce squalene oxide cyclase activity to one-half its normal value. Rat liver microsomes ([…] -rat liver homogenate) were prepared by the method of Popjak, G (Methods in Enzymology, 1969 XV, 393-545). The reaction mixture contained [^3 H]-(S)-[…] (40 uM final), Tween-80 (0.15% w/v final), 0.1 M potassium phosphate, pH 7.5, and inhibitor of varying concentration all in 0.8 ml. The reaction was initiated by the addition of 0.2 ml of the SIO homogenate. The reaction was flushed with N2 and incubated anaerobically for 1 hour at 37° C. The reaction was terminated by addition of 1 ml of 6% potassium hydroxide in methanol (w/v). […] After reduction to […], cold lanosterol was added as carrier, and the extract was applied to a silica TLC plate. After development in methylene chloride, the spot corresponding to lanosterol was scraped off and counted for radioactivity. The I50 for each inhibitor was determined from a plot of radioactive lanosterol formed versus inhibitor concentration.
# [8] = system: cholesterol biosynthesis in CHO cells; details: Nelson et al. 1978; cited from earlier work
# [9] = system: cholesterol biosynthesis in rat liver enzyme preparations; details: Nelson et al. 1978; cited from earlier work
# [10] = incubation with rat liver homogenate; Nelson et al. 1978; cited from earlier work
# [11] = system: squalene oxide cyclase; assay: SOC inhibition in in vivo experiments
# [12] = target: T1, squalene oxide cyclase
# [13] = system: lymphocytes; details: in vivo; cited from earlier work
# [14] = inhibitor with suppressor 25-hydroxy-cholesterol (5 ug/ml), HDF 34 ± 3
# [15] = inhibitor with suppressor LDL (200 ug/ml), HDF 27 ± 2
# [16] = inhibitor with suppressor Mevalonate, HDF 19 ± 2
# [17] = suppressor: none, HDF control 88 ± 6
compound,measurement,setting,value
"CC1(C)NCC[C@]2(C)CCCC[C@@H]12 (relative stereo) [LA-I-140, 4,4,10-trimethyl-trans-3-azadecalin]",IC50,"[1]; Hepatocyte, primary rat hepatocytes, overnight incubation, read-out: concentration reducing sterol synthesis to one-half of normal levels",40 µg/mL
same,125I-LDL Binding,[2]; 20 ug/ml,75 ± 3 ng/mg cell protein
same,125I-LDL Internal,[2]; 20 ug/ml,642 ± 96 ng/mg cell protein
same,125I-LDL Degradation,[2]; 20 ug/ml,408 ± 61 ng/mg cell protein
"C[C@@H]1[C@@H](O)CC[C@]2(C)CCCC[C@@H]12 (relative stereo) [4,10 beta-dimethyl analogue]",effect on the cyclases of higher plants,[3],virtually no effect
same,type of inhibition of SOC,[4],nonoompetitive inhibitors of SOC
"CC1(C)[C@@H](O)CC[C@]2(C)[C@@H](CO)CCC[C@@H]12 (relative stereo) [JW I-60, 4,4,10beta-trimethyl-9beta-hydroxymethyl-trans-decal-3beta-ol]",inhibition of fatty acid synthesis,[5],much more effective inhibitor of fatty acid synthesis
same,inhibition of cholesterol synthesis,[6],weak inhibitor of cholesterol synthesis
"CC1(C)CC[C@@]2(C)CC[C@H](O)C(C)(C)[C@@H]2C1 (relative stereo) [PCR II-23, 4,4,7,7, 10beta-Pentamethvl-trans-decal-3beta-ol]",IC50,[7],160 µM
same,effectiveness as SOC inhibitor relative to TMD,[7],about 2.7 times
same,LDL BINDING,[2]; [14],117 ± 11 ng/mg cell protein
same,LDL BINDING,[2]; [15],36 ± 2 ng/mg cell protein
same,LDL BINDING,[2]; [16],196 ± 30 ng/mg cell protein
same,LDL BINDING,[2]; [17],281 ± 18 ng/mg cell protein
"CC1(C)[C@@H](O)CC[C@]2(C)CCCC[C@@H]12 (relative stereo) [TMD, 4, 4,10 beta-trimethyl-trans-decal-3beta-ol]",inhibition of cholesterol biosynthesis,[8],specifically inhibited cholesterol biosynthesis
same,inhibition of squalene oxide cyclase in in vitro microsomal assays,[7],effective inhibitor of squalene oxide cyclase
same,IC50,[7],430 µM
same,inhibition of cholesterol biosynthesis,[9],specifically inhibited cholesterol biosynthesis
same,effect on the cyclases of higher plants,[3],virtually no effect
same,125I-LDL Binding,[2]; 20 ug/ml,130 ± 11 ng/mg cell protein
same,125I-LDL Internal,[2]; 20 ug/ml,891 ± 202 ng/mg cell protein
same,125I-LDL Degradation,[2]; 20 ug/ml,990 ± 71 ng/mg cell protein
same,major product of metabolism,[10],"4,4,10beta-trimethyl-trans-decalin-3beta, 7beta-diol was isolated as the major product of TMD metabolism"
same,type of inhibition of SOC,[4],nonoompetitive inhibitors of SOC
same,inhibition of SOC in vivo,[11],unexpectedly poor inhibitor of SOC
same,inhibition of SOC in rat hepatocytes,[12],unexpectedly poor inhibitor of SOC
"CC1(C)[C@@H](O)CC[C@]2(C)CCC3(CC3)C[C@@H]12 (relative stereo) [PCR II-8B, (4,4,10beta-trimethyl-trans-decal-3 beta-ol)--7-spiro-1'-cyclopropane]",IC50,[7],80 µM
same,effectiveness as SOC inhibitor relative to TMD,[7],~5.4 times
same,sterol biosynthesis by primary rat hepatocytes,[1]; 50 ug/ml,no detectable sterol biosynthesis
same,LDL BINDING,[2]; [14],69 ± 4 ng/mg cell protein
same,LDL BINDING,[2]; [15],39 ± 4 ng/mg cell protein
same,LDL BINDING,[2]; [16],176 ± 17 ng/mg cell protein
same,LDL BINDING,[2]; [17],278 ± 3 ng/mg cell protein
"CC1(C)[C@@H](O)CC[C@]2(C)CCC(F)(F)C[C@@H]12 (relative stereo) [LN I-83, 4,4,10 beta-Trimethyl-7,7-difluoro-trans-decal-3beta-ol]",IC50,[7],430 µM
same,125I-LDL Binding,[2]; 20 ug/ml,105 ± 12 ng/mg cell protein
same,125I-LDL Internal,[2]; 20 ug/ml,687 ± 152 ng/mg cell protein
same,125I-LDL Degradation,[2]; 20 ug/ml,864 ± 47 ng/mg cell protein
CCN(CC)CCO[C@H]1CC[C@@]2(C)C(=CC[C@@H]3[C@@H]2CC[C@]2(C)C(=O)CC[C@@H]32)C1 [U18666A],125I-LDL Binding,[2]; 5 ug/ml,160 ± 4 ng/mg cell protein
same,125I-LDL Internal,[2]; 5 ug/ml,1093 ± 17 ng/mg cell protein
same,125I-LDL Degradation,[2]; 5 ug/ml,682 ± 141 ng/mg cell protein
C[C@H](CCCC(C)(C)O)[C@H]1CC[C@H]2[C@@H]3CC=C4C[C@@H](O)CC[C@]4(C)[C@H]3CC[C@]12C [25-hydroxy-cholesterol],LDL BINDING,"[2]; suppressor alone in HDF, 5 ug/ml, no suppressor 88 ± 6",34 ± 3 ng/mg cell protein
CC[C@H](C)C(=O)O[C@H]1C[C@@H](C)C=C2C=C[C@H](C)[C@H](CC[C@@H]3C[C@@H](O)CC(=O)O3)[C@H]21 [Mevinolin],up regulation of LDL receptors in HepG2 cells,[2]; culture medium free of sterol supplements (HDF),equally effective in up regulation of LDL receptors
same,LDL BINDING,[2]; [14],3 ± 2 ng/mg cell protein
same,LDL BINDING,[2]; [15],38 ± 3 ng/mg cell protein
same,LDL BINDING,[2]; [16],35 ± 2 ng/mg cell protein
same,LDL BINDING,[2]; [17],213 ± 4 ng/mg cell protein
same,defects in glycosylation of proteins in lymphocytes,[13],defects in the glycosylation of proteins in lymphocytes which can persist for ten months after administration
CC(O)(CCO)CC(=O)O (stereo not drawn) [Mevalonate],LDL BINDING,"[2]; suppressor alone in HDF, no suppressor 88 ± 6",19 ± 2 ng/mg cell protein

# Reference: patent US4863932A, “Squalene oxide cyclase inhibitors and therapeutic use thereof” (Somatogenetics International, Inc., priority 1988, dated 1989)
